Test [1] has as its target T1, PRMT5 (Homo sapiens, UniProt O14744).
T1 construct: purchased Viva (custom protein)
The test is described as follows: PRMT5 biochemical IC50 assay with SAM as cofactor. To be noted: PRMT5, SAM as cofactor; read-out: SAM IC50.

The target in test [2] is T1, PRMT5. The test is described as follows: PRMT5 biochemical IC50 assay with MTA as cofactor. To be noted: PRMT5, MTA as cofactor; read-out: MTA IC50.
Test [3] concerns HAP1 MTAP-deleted cell line. In words: SDMA in-cell western assay, HAP1 MTAP-deleted. Particulars: for pIC50: Homo sapiens, HAP1, SDMA in-cell western, HAP1 MTAP-deleted; for MTAP intact/deleted ratio: SDMA in-cell western. The class given is cell-based. In short, it runs like this: (§1)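 Isogenic HAP1 pair: the MTAP-intact line expresses endogenous MTAP, and the deleted line is MTAP-null. Symmetric dimethylarginine was detected by in-cell western and IC50 values derived for each line.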

The subject of test [4] is HAP1 MTAP-intact cell line. The test is described as follows: SDMA in-cell western assay, HAP1 MTAP-intact. The class given is cell-based. To be noted: Homo sapiens, HAP1, SDMA in-cell western, HAP1 MTAP-intact; read-out: MTAP HAP1 intact IC50. The essentials: as §1
Test [5] has as its target T1, PRMT5. The test is described as follows: PRMT5 biochemical IC50 assay with no cofactor. Particulars: PRMT5, no cofactor. From the text:
Table 1 indicates IC50 values (μM) against PRMT5 for exemplary compounds in the presence of SAM as cofactor, with no cofactor, and with MTA as cofactor, respectively (columns 4-6). […] Ki values can be calculated from the IC50 values as described in the Examples section. As detailed in the Examples section, for the assay performed in the presence of SAM, IC50=Ki×1.5 (Ki=IC50/1.5).

Test [6] relates to HAP1 MTAP-deleted cell line. In words: Viability assay, MTAP-deleted cell line. To be noted: Homo sapiens, read-out: HAP1 MTAP deleted viability. The test is classed as cell-based. From the text:
Table 1 additionally indicates IC50 values in a viability assay for the MTAP-deleted cell line (column 10), indicating the effect of treatment with compound on cell survival.

[7] abbreviates: read-out: HAP 1 MTAP deleted IC50.
[8] abbreviates: IC50 ratio HAP1 MTAP-intact / HAP1 MTAP-deleted.
[9] abbreviates: HAP1, viability IC50, MTAP-deleted cell line.
The mark [10] stands for this setting: read-out: HAP1 MTAP deleted IC50.
The mark [11] stands for this setting: HAP1, viability assay, MTAP-deleted cell line.
[12] abbreviates: read-out: No Cofactor/ rel IC50.
The mark [13] stands for this setting: HAP1, viability, HAP1 MTAP-deleted cell line.

pIC50: −log10 of the molar value. A value given as a limit tells only on which side of the number the result lay.

T1 sequence (O14744 whole entry): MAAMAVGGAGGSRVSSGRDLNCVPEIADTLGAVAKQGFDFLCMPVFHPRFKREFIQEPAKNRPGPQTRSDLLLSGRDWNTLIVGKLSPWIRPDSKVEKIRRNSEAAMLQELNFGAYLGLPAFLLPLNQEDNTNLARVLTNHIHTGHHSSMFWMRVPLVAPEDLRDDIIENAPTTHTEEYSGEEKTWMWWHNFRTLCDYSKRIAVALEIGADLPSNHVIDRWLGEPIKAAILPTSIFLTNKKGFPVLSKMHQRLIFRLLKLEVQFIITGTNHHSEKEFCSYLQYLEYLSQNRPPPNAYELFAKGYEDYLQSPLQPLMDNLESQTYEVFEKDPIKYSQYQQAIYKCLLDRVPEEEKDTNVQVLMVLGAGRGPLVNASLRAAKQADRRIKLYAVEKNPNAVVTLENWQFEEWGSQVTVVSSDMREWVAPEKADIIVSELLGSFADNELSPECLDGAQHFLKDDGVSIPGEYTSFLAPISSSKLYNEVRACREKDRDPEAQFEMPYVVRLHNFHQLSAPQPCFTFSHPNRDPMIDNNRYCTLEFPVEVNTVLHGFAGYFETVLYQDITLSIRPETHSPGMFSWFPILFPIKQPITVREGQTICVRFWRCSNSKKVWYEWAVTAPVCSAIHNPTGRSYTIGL
T1 sequence (Q9BQA1 whole entry partner): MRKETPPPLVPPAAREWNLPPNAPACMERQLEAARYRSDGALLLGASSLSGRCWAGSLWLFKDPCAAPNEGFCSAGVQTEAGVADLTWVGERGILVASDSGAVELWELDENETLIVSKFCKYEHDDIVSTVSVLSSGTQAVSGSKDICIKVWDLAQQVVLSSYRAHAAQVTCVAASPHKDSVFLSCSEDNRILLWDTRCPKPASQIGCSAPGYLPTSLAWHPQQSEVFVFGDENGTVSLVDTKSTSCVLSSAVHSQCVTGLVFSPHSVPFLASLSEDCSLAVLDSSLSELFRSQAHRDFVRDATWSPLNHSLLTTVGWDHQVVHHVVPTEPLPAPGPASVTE

As to `C[C@@H]1CC[C@@H](c2ccc(O)c(C(C)(C)C)c2)N(C(=O)C(=O)Nc2cncc(C(N)=O)c2)C1` (racemic) [Compound 610, 5-[[2-[(2R,5S)-2-(3-tert-Butyl-4-hydroxy-phenyl)-5-methyl-1-piperidyl]-2-oxo-acetyl]amino]pyridine-3-carboxamide], the pIC50 at PRMT5 [1] was 6.30 to 7.30; on PRMT5 [2], 6.30 to 7.30; in test [3] (setting [7]), above 7.00; in test [4], below 6.00; on PRMT5 [5] (read-out: No Cofactor/rel IC50), 6.30 to 7.30; in test [6] (setting [9]), 5.00 to 6.00. The MTAP intact/deleted ratio result in test [3] (setting [8]) was “A (an IC50 ratio greater than or equal to 10 fold)”.

`C[C@@H]1CC[C@@H]([C@H]2CCC[C@@H](O)C2)N(C(=O)C(=O)Nc2cncc(C(N)=O)c2)C1` (single isomer, unassigned) [Compound 531]: the pIC50 at PRMT5 [1] is 6.30 to 7.30; on PRMT5 [2], 6.30 to 7.30; in test [3] (setting [7]) it was below 6.00; in test [4], below 6.00; at PRMT5 [5] (read-out: No Cofactor/rel IC50), below 6.30; in test [6] (setting [9]), below 5.00. Moreover, the MTAP intact/deleted ratio result in test [3] (setting [8]) is on record as “B (an IC50 ratio greater than or equal to 3 fold but lower than 10 fold)”.

For `Cc1cc(NC(=O)C(=O)N2C[C@H](C)CC[C@H]2c2ccc3c(c2)C(=O)NC3)cnc1N` (racemic) [Compound 582, N-(6-amino-5-methyl-3-pyridyl)-2-[(2R,5S)-5-methyl-2-(3-oxoisoindolin-5-yl)-1-piperidyl]-2-oxo-acetamide], the pIC50 at PRMT5 [1] was 6.30 to 7.30; on PRMT5 [2], 6.30 to 7.30; in test [3] (setting [7]), above 7.00; in test [4], 6.00 to 7.00; at PRMT5 [5] (read-out: No Cofactor/rel IC50) it was 6.30 to 7.30; in test [6] (setting [9]) it was 5.00 to 6.00. Further, the MTAP intact/deleted ratio result in test [3] (setting [8]) is given as “A (an IC50 ratio greater than or equal to 10 fold)”.

With `COc1ncc(NC(=O)C(=O)N2C[C@@H](C)CC[C@@H]2c2ccc3[nH]ncc3c2)cc1C(N)=O` (single isomer, unassigned) [Compound 464], the pIC50 is 6.30 to 7.30 on PRMT5 [1]; above 7.30 at PRMT5 [2]; above 7.00 in test [3] (setting [10]); 6.00 to 7.00 in test [4]; above 7.30 at PRMT5 [5] (read-out: No Cofactor/rel IC50); above 6.00 in test [6] (setting [11]). The MTAP intact/deleted ratio result in test [3] (setting [8]) is given as “A (an IC50 ratio greater than or equal to 10 fold)”.

Turning to `Cc1cc(NC(=O)C(=O)N2C[C@@H](C)CC[C@@H]2c2ccc(N)cc2)cnc1N` (single isomer, unassigned) [Compound 1081], the pIC50 at PRMT5 [1] was below 6.30; at PRMT5 [2] it was below 6.30; in test [3] (setting [10]) it was below 6.00; in test [4], below 6.00; on PRMT5 [5] (read-out: No Cofactor/rel IC50) it was below 6.30; in test [6] (setting [11]), below 5.00. Further, in test [3] (IC50 ratio HAP1 MTAP-intact vs HAP1 MTAP-deleted), the MTAP intact/deleted ratio result is “B (an IC50 ratio greater than or equal to 3 fold but lower than 10 fold)”.

With `C[C@H]1CC[C@H](c2ccc(N)cc2)N(C(=O)C(=O)Nc2cncc(C(N)=O)c2)C1` (single isomer, unassigned) [Compound 398], the pIC50 at PRMT5 [1] is below 6.30; on PRMT5 [2], below 6.30; in test [3] (setting [10]), below 6.00; in test [4], below 6.00; on PRMT5 [5] (read-out: No Cofactor/rel IC50), below 6.30; in test [6] (setting [11]) it was below 5.00. Further, the MTAP intact/deleted ratio entry in test [3] (setting [8]) is given as “B (an IC50 ratio greater than or equal to 3 fold but lower than 10 fold)”.

Take `C[C@@H]1CC[C@@H](c2cnc3c(c2)CCC(=O)N3)N(C(=O)C(=O)Nc2cncc(C(N)=O)c2)C1` (racemic) [Compound 888, rac-5-[[2-[(2S,5R)-5-Methyl-2-(7-oxo-6,8-dihydro-5H-1,8-naphthyridin-3-yl)-1-piperidyl]-2-oxo-acetyl]amino]pyridine-3-carboxamide]: the pIC50 at PRMT5 [1] is 6.30 to 7.30; on PRMT5 [2], 6.30 to 7.30; in test [3] (setting [7]), below 6.00; in test [4], below 6.00; at PRMT5 [5] (read-out: No Cofactor/rel IC50) it was 6.30 to 7.30; in test [6] (setting [11]), below 5.00. Besides, the MTAP intact/deleted ratio entry in test [3] (setting [8]) is on record as “C (an IC50 ratio of less than 3 fold)”.

On to `CCc1cc(NC(=O)C(=O)N2C[C@@H](C)CC[C@@H]2c2ccc3sc(CN(C)C)nc3c2)cnc1N` [Compound 1325, N-(6-amino-5-ethylpyridin-3-yl)-2-((2R,5S)-2-(2-((dimethylamino)methyl)benzo[d]thiazol-5-yl)-5-methylpiperidin-1-yl)-2-oxoacetamide], for which the pIC50 on PRMT5 [1] is 6.30 to 7.30; on PRMT5 [2], above 7.30; in test [3] (setting [7]), above 7.00; in test [4] it was above 7.00; on PRMT5 [5] (setting [12]), above 7.30; in test [6] (setting [13]), above 6.00. Also, the “MTAP intact/deleted ratio” value in test [3] (setting [8]) is “A (an IC50 ratio greater than or equal to 10 fold)”.

For `NC(=O)c1cncc(NC(=O)C(=O)N2CC3(CCC2c2ccc(F)cc2)CC3)c1` (stereo not drawn) [Compound 776, 5-(2-(6-(4-fluorophenyl)-5-azaspiro[2.5]octan-5-yl)-2-oxoacetamido)nicotinamide], the pIC50 was 6.30 to 7.30 at PRMT5 [1]; 6.30 to 7.30 at PRMT5 [2]; 6.00 to 7.00 in test [3] (setting [10]); below 6.00 in test [4]; 6.30 to 7.30 on PRMT5 [5] (read-out: No Cofactor/rel IC50); 5.00 to 6.00 in test [6] (HAP1, viability assay, HAP1 MTAP-deleted). Moreover, in test [3] (setting [8]), the MTAP intact/deleted ratio result is “A (an IC50 ratio greater than or equal to 10 fold)”.

As to `Cc1cc(NC(=O)C(=O)N2CCCCC2C2CCC2)cnc1N` (stereo not drawn) [Compound 182, N-(6-amino-5-methyl-3-pyridyl)-2-(2-cyclobutyl-1-piperidyl)-2-oxo-acetamide], the pIC50 is 6.30 to 7.30 at PRMT5 [1]; above 7.30 on PRMT5 [2]; 6.00 to 7.00 in test [3] (setting [10]); below 6.00 in test [4]; 6.30 to 7.30 on PRMT5 [5] (read-out: No Cofactor/rel IC50); below 5.00 in test [6] (setting [11]). Besides, the MTAP intact/deleted ratio result in test [3] (setting [8]) is recorded as “A (an IC50 ratio greater than or equal to 10 fold)”.

For `Cc1cc(NC(=O)C(=O)N2C[C@H](C)CC[C@H]2c2ccc(-c3ccn[nH]3)s2)cnc1N` (racemic) [Compound 556, N-(6-amino-5-methyl-3-pyridyl)-2-[(2R,5S)-5-methyl-2-[5-(1H-pyrazol-5-yl)-2-thienyl]-1-piperidyl]-2-oxo-acetamide], the pIC50 on PRMT5 [1] was 6.30 to 7.30; at PRMT5 [2] it was 6.30 to 7.30; in test [3] (setting [7]), above 7.00; in test [4] it was 6.00 to 7.00; at PRMT5 [5] (read-out: No Cofactor/rel IC50), 6.30 to 7.30; in test [6] (setting [9]), above 6.00. Also, in test [3] (setting [8]), the MTAP intact/deleted ratio result was “A (an IC50 ratio greater than or equal to 10 fold)”.

As for `O=Cc1cncc(NC(=O)C(=O)N2CCCCC2c2ccccc2)c1` (stereo not drawn) [Compound 147, N-(5-formylpyridin-3-yl)-2-oxo-2-(2-phenylpiperidin-1-yl)acetamide], the pIC50 on PRMT5 [1] was below 6.30; on PRMT5 [2] it was 6.30 to 7.30; in test [3] (setting [7]), below 6.00; in test [4], below 6.00; at PRMT5 [5] (setting [12]), below 6.30; in test [6] (setting [11]), below 5.00. Besides, the “MTAP intact/deleted ratio” value in test [3] (setting [8]) is on record as “C (an IC50 ratio of less than 3 fold)”.

On to `Cc1cc(NC(=O)C(=O)N2C[C@@H](C)CC[C@@H]2c2ccc3nn(C)cc3c2)cnc1N` (single isomer, unassigned) [Compound 1040], for which the pIC50 on PRMT5 [1] was below 6.30; on PRMT5 [2], below 6.30; in test [3] (setting [7]), 6.00 to 7.00; in test [4] it was below 6.00; on PRMT5 [5] (read-out: No Cofactor/rel IC50), below 6.30; in test [6] (setting [11]), below 5.00. The MTAP intact/deleted ratio entry in test [3] (setting [8]) is “A (an IC50 ratio greater than or equal to 10 fold)”.

Consider `CO[C@H]1C[C@H](c2ccc3scnc3c2)N(C(=O)C(=O)Nc2cnc(N)c(C3CC3)c2)C[C@H]1C` (single isomer, unassigned) [Compound 1370], for which the pIC50 on PRMT5 [1] was 6.30 to 7.30; at PRMT5 [2], above 7.30; in test [3] (setting [7]) it was above 7.00; in test [4] it was above 7.00; at PRMT5 [5] (setting [12]), above 7.30; in test [6] (setting [13]) it was above 6.00. For the same compound, in test [3] (setting [8]), the “MTAP intact/deleted ratio” value is “A (an IC50 ratio greater than or equal to 10 fold)”.

For `Cc1ncc(NC(=O)C(=O)N2C[C@@H](C)CC[C@@H]2c2ccc3sc(C4CCN(C)CC4)nc3c2)cc1C1COC1` [Compound 1309, 2-((2R,5S)-5-methyl-2-(2-(1-methylpiperidin-4-yl)benzo[d]thiazol-5-yl)piperidin-1-yl)-N-(6-methyl-5-(oxetan-3-yl)pyridin-3-yl)-2-oxoacetamide], the pIC50 on PRMT5 [1] is above 7.30; at PRMT5 [2] it was above 7.30; in test [3] (setting [7]) it was above 7.00; in test [4], above 7.00; at PRMT5 [5] (setting [12]), above 7.30; in test [6] (setting [13]), above 6.00. Moreover, in test [3] (setting [8]), the “MTAP intact/deleted ratio” value is “A (an IC50 ratio greater than or equal to 10 fold)”.
